Reference: patent US20230187019A1, “METHOD FOR DETERMINING A DRUG COMBINATION VIA A BLOCKING MODEL OF A MULTI-SITE-TARGETED PROTEIN AND APPLICATIONS THEREOF” (National Tsing Hua University, priority 2021, published 2023)
Values joined by “and” are separate entries in the source; they are usually repeats but may differ in a detail not shown here. Identical values can stand only once. Like-named read-outs stand apart in the source and are kept apart here.

What was measured:
MDA-MB-468 = test: Cell viability assay by WST-1 on MDA-MB-468; format: cell-based, human; details: 10 μM, two days, breast MDA-MB-468
Description: Three tumor cells were tested, i.e., HCT116 (colorectal cancer), AsPC-1 (pancreatic cancer) and MDA-MB-468 cell lines (breast cancer). Human colorectal carcinoma cell line HCT116 (catalog number: BCRC 60349, Bioresource Collection and Research Center (BCRC), Hsinchu City, Taiwan) was maintained in the culture medium: McCoy's 5a medium (catalog number: 16-600-082, Gibco, Waltham, Mass.) with 1.5 mM L-glutamine (Gibco) and 10% fetal bovine serum (FBS, Gibco). Human pancreatic adenocarcinoma cell line AsPC-1 (catalog number: BCRC 60494, BCRC) was maintained in the culture medium: RPMI 1640 medium (catalog number: 11875168, Gibco) with 2 mM L-glutamine, 4.5 g/L glucose (Gibco), 10 mM HEPES (Gibco), 1 mM sodium pyruvate (Gibco) and 10% fetal bovine serum. […]
For cell viability assay, tumor cells (1×10^5/mL) were suspended in the medium without testing drugs and then inoculated in 96-well plates (100 μL per well) for attachment first. […] Cell proliferation was quantified by using a Premix WST-1 Cell Proliferation Assay System (Takara, Japan). According to the manufacturer's protocol, cell proliferation was determined by measuring the optical density (OD) after the reaction for 3 hours by recording the absorbance at 450 nm using a plate reader (Multiskan Go, Thermo Fisher Scientific).

3CL^pro = target: T1, 3CL^pro (Severe acute respiratory syndrome coronavirus 2, UniProt P0DTD1); test: FRET-based 3CL^pro enzyme activity assay; format: biochemical; details: single use, 3 to 90 μM
T1 construct: A 3CL^pro (Cat. #78042-1) assay kit (BPS Bioscience, CA, USA); purchased BPS Bioscience 78042-1
Description: The intensity of this fluorescence is proportional to the protease activity.
Inhibition percentage is calculated by “1−(Itest−Isubstrate)/(Ipositive−Isubstrate),” where I represents the value of inhibition ability.
The FRET (fluorescence resonance energy transfer)-based assay was designed for 3CL^pro activity assay and explained in FIG. 10. The 3CL^pro enzyme assay was developed in a 96-well black microplate with a total volume of 50 μL. 30 μL of 0.5 ng/μL enzyme in a reaction buffer was added into each well, followed by the addition of 10 μL substrate solution to a final concentration of 40 μM.

AsPC-1 = test: Cell viability assay (MTT) on AsPC-1
Description: (§1) The cell viability was measured using the MTT assay or CellTiter-Glo Luminescent Cell Viability Assay. For MTT assay, mouse AK4.4 (1,000 cells/well) and human AsPC-1 (1,500 cells/well) cells were seeded in 96-well plates and cultured in serum-free medium (SFM) containing indicated concentrations of drugs for 48 hours. To measure the cell viability, 15 μL MTT (3-(4,5-dimethylthiazol-2-yl)-2,5-diphenyltetrazolium bromide, 5 mg/mL in PBS) was added in each well and kept at 37° C. for three hours. The precipitated crystals were then dissolved in 50 μL DMSO, and the absorbance at 570 nm was measured by Multiskan GO Microplate Spectrophotometer (Thermo Scientific, USA) to estimate the cell survival rate. To quantify the drug combination effect, the combination index was calculated when the cell viability was reduced by 50% using the following Equation (1):

ATG4B = ATG4B (Homo sapiens, UniProt Q9Y4P1); test: In vitro cleavage assay of ATG4B catalytic activity (western blot of tagged LC3B); format: biochemical
ATG4B, sequence (Q9Y4P1 whole entry): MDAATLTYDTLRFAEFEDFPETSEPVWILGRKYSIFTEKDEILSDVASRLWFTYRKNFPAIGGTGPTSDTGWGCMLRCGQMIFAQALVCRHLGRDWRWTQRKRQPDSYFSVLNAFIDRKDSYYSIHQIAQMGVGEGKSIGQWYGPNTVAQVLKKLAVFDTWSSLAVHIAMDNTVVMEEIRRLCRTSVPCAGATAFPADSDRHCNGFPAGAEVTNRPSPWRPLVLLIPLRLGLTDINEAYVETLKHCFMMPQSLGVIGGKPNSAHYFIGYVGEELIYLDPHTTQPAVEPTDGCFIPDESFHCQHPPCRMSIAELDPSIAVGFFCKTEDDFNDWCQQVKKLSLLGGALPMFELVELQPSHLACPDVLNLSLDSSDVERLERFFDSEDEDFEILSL
Description: The reagents were incubated at 37° C. for 30 minutes and then subjected to western blotting. The intensity of the band in the gel was calculated by using Image Studio Lite from LI-COR Biosciences or ImageJ.
The full-length LC3B fusion protein was used as the negative control and as the positive control when also incubated with ATG4B (FIG. 22A). […] A peptide that can inhibit ATG4B activity will weaken the fluorescence signal produced by the cleaved PLA2.

shATG4B/HCT116 = test: Cell viability assay on shATG4B/HCT116 (ATG4B silencing strain); format: cell-based, human
LC3B-II = test: Western blotting of LC3B-II in AK4.4 and AsPC-1 cells; format: cell-based; details: AK4.4 and AsPC-1, western blotting
Description: Cells were seeded in a 12-well plate (10^5 cells/well) and cultured in serum-free medium (SFM) with different concentrations of drugs for six hours. The plate was then washed with phosphate-buffered saline (PBS), and cells were lysed with 100 μL radioimmunoprecipitation assay buffer (RIPA buffer) for each well. The cell extracts were mixed with 4×dye (900 μL of 4×Laemmli sample buffer+100 μL of 2-mercaptoethanol) at 95° C. for ten minutes and separated by sodium dodecyl sulfate-polyacrylamide gel electrophoresis (SDS-PAGE). The fractions were then transferred to a polyvinylidene fluoride (PVDF) membrane and immersed in 5% nonfat milk at room temperature for one hour. Afterward, the transfer membrane was incubated with protein-specific primary antibodies at 4° C. overnight, washed by PBST (0.1% Tween 20 in PBS), and then incubated with horseradish peroxidase (HRP)-conjugated secondary antibodies at room temperature for one hour. The blots washed by PBST were then detected by enhanced chemiluminescence (ECL) for the quantification of proteins.

AK4.4 = test: Cell viability assay (MTT) on AK4.4; details: for IC50: Mus musculus
Description: as §1

[1] = test system: AK4.4 pancreatic ductal adenocarcinoma (PDAC) xenograft
shCtrl/HCT116 = test: Cell viability assay on shCtrl/HCT116 (control strain); format: cell-based, human; details: HCT116 (FIG. 13A, shCtrl/HCT116)
[2] = Vb concentration for 50% reduction of viability in combination with 0.50 μM Mx

CC1=C(/C=C/C(C)=C/C=C/C(C)=C/C(=O)Nc2ccc(O)cc2)C(C)(C)CCC1 [Fenretinide]
suppression of tumor cell growth (MDA-MB-468): seems to be a better breast cancer inhibitor

CC(C)C[C@@H](N)C(=O)N[C@H]1C(=O)N[C@@H](CC(N)=O)C(=O)N[C@H]2C(=O)N[C@H]3C(=O)N[C@H](C(=O)N[C@H](C(=O)O)c4cc(O)cc(O)c4-c4cc3ccc4O)[C@H](O)c3ccc(c(Cl)c3)Oc3cc2cc(c3O[C@@H]2O[C@H](CO)[C@@H](O)[C@H](O)[C@H]2O[C@H]2C[C@](C)(N)[C@H](O)[C@H](C)O2)Oc2ccc(cc2Cl)[C@H]1O [norvancomycin]
inhibition of 3CL^pro (3CL^pro): 20 to 30%

CCC1=C[C@@H]2CN(C1)Cc1c([nH]c3ccccc13)[C@@](C(=O)OC)(c1cc3c(cc1OC)N(C)[C@H]1[C@@](O)(C(=O)OC)[C@H](OC(C)=O)[C@]4(CC)C=CCN5CC[C@]31[C@@H]54)C2 [Vinorelbine]
reduced cell viability (AsPC-1; AsPC-1, 5 μM): 68%
reduced cell viability (AsPC-1; AsPC-1, 10 μM): 61%
reduced cell viability (AsPC-1; AsPC-1, 20 μM): 46%
IC50 (AsPC-1; Homo sapiens, ASPC1, read-out: IC50, Vb, vinorelbine alone, AsPC-1 (Table 9)): 17.4 µM
IC50 (AsPC-1; Homo sapiens, ASPC1, read-out: IC50, Vb, vinorelbine alone, AsPC-1 (Table 15)): 33.1 µM
viability at 5 µM (AsPC-1; Homo sapiens, ASPC1, read-out: cell viability, AsPC-1, 5 μM vinorelbine alone): 68%
viability at 10 µM (AsPC-1; Homo sapiens, ASPC1, read-out: cell viability, AsPC-1, 10 μM vinorelbine alone): 61%
viability at 20 µM (AsPC-1; Homo sapiens, ASPC1, read-out: cell viability, AsPC-1, 20 μM vinorelbine alone): 46%
CVb, 50 (AsPC-1; [2]): 18.94 µM
CVb, 50 (AsPC-1; Vb concentration for 50% reduction of viability in combination with 1.00 μM Mx): 9.05 µM
reduction of the ATG4B activity on LC3B catalysis (ATG4B; 10 μM vinorelbine, FIG. 4B): 42%
inhibition at 10 µM (ATG4B; read-out: inhibition of ATG4B catalysis): 58%
reduced cell viability (shATG4B/HCT116): 37% and 43% and 54%
abundance of LC3B-II in cells (LC3B-II): accumulation of LC3B-II
reduced cell viability (AK4.4; AK4.4, 5 μM): 62%
reduced cell viability (AK4.4; AK4.4, 10 μM): 51%
reduced cell viability (AK4.4; AK4.4, 20 μM): 24%
IC50 (AK4.4; read-out: IC50, Vb, vinorelbine alone, AK4.4 (Table 8)): 10.4 µM
IC50 (AK4.4; read-out: IC50, Vb, vinorelbine alone, AK4.4 (Table 14)): 7.19 µM
CVb, 50 (AK4.4; [2]): 3.91 µM
tumor size compared to the control group ([1]; 20 mg/kg, day 16): 70%
tumor size measured on day 16 versus control group ([1]; dose of 10 mg/kg, days 3, 5, 7, 10, 12, 14): less than half of the tumor size in the control group
reduced cell viability (shCtrl/HCT116; 4 μM): 55%
reduced cell viability (shCtrl/HCT116; 10 μM): 63%
reduced cell viability (shCtrl/HCT116; 20 μM): 68%
